Source: US7531567B2, “Use of a medicament containing an effector of the glutathione metabolism together with α-lipoic acid in kidney replacement therapy” (Serumwerk Bernburg AG, priority 2001, dated 2009)

What was measured:
Format in all cases: cell-based, human
[1] = system: peripheral immune cells; experiment: membrane-bound thiol expression of peripheral immune cells (CMTMR flow cytofluorimetry); conditions: α-lipoic acid 50 μM, captopril 10 μM, combination at the same concentrations
Protocol: Peripheral immune cells of healthy donors (n=9) were isolated from the peripheral blood by means of density gradient centrifugation. Lymphocytes having a donor-dependent relative proportion of about 90% in this case normally represent the main fraction of the resulting total population of mononuclear cells. 10% of the mononuclear cells are represented by monocytes. The mononuclear cells obtained were taken up in special cell culture media and incubated in a gas incubator at 37° C., a relative humidity of 98% and 5% relative air-CO2 content. The metabolism of the primarily resting immune cells was activated by means of mitogenic stimulation (0.5 μg/ml of phytohemagglutinin). In order to test the influence of the combinations used according to the invention on the thiol status of thiol-deficient immune cells, these were artificially thiol-depleted. This was carried out by culturing in thiol-deficient media (RPMI 1603) according to tested procedures. Comparison cultures using whole media (RPMI 1640) served for the definition of the best possible normal value under culture conditions. The expression of membrane-bound thiol groups was likewise determined by flow cytofluorimetry. In this connection, chloromethyltetramethylrhodamine (CMTMR) was employed as a thiol conjugate under the conditions of a blocked membrane potential and of an inhibited diffusion capacity of the cells. The fluorescence intensity of the bound fluorochrome molecules on the cell membrane is in this case in turn proportional to the amount of the thiol groups on the cell surface.

[2] = system: T lymphocytes; experiment: activation markers CD69, CD25, CD71 of phytohemagglutinin-stimulated T lymphocytes; conditions: thiol-deficient cells, culture period of 72 hours, FIG. 3
Protocol: In the culture batch described under example 1, human T lymphocytes were stimulated with […] of phyto-hemagglutinin. […] The influence of the combinations used according to the invention on the activation markers CD69 (early activation antigen), CD25 (intermediate activation antigen) and CD71 (late activation antigen) of T lymphocytes was investigated. In FIG. 3, the action of the combination of α-lipoic acid and ambroxole (FIG. 3a), and α-lipoic acid and enalapril (FIG. 3b) on the activation index of T lymphocytes is shown. Compared with normal T lymphocytes (activation index=1.0), in thiol-deficient cells a clear lowering of the activatability, confirming the cellular functional disorder, is to be noted. […] It can thus be concluded that the normalization of the cellular thiol status mediated by the combined use of α-lipoic acid and the respective effectors of the glutathione metabolism is accompanied by a restitution of the cellular functionality.

[3] = system: peritoneal macrophages; experiment: membrane-bound thiol expression of peritoneal macrophages; conditions: FIG. 5
Protocol: Peritoneal macrophages were isolated from the effluate of the peritoneal dialysis of high-grade renally insufficient patients, taken up in cell culture medium and incubated in a gas incubator at 37° C., a relative humidity of 98% and 7.5% relative air-CO2 content. In order to test the influence of the combinations used according to the invention on the thiol status of the peritoneal macrophages, in each case a fraction was treated with α-lipoic acid, the effector of the glutathione metabolism ambroxole or the ACE inhibitor enalapril or with the combination of α-lipoic acid/ambroxole or α-lipoic acid/enalapril, while in each case a further fraction was used as an untreated control. The determination of the cellular thiol status was carried out by means of the measuring method described under 1. The membrane expression of thiols was determined by means of the mean fluorescence intensity (mfi) of the sample (3000 cells/measurement) after coupling to a chloromethylfluorochrome derivative. In FIG. 5, the action of the combination of α-lipoic acid and enalapril (FIG. 5b) on the membrane-bound thiol expression of peritoneal macrophages in the experimental setup described above is presented. The membrane expression of thiols was determined by means of the mean fluorescence intensity (mfi) of the sample (3000 cells/measurement) after coupling to a chloro-methylfluorochrome derivative.

[4] = system: peritoneal macrophages; experiment: degree of differentiation and activation of peritoneal macrophages (CD15, CD11c, CD69, CD71); conditions: incubation for 6 days, control = 1.0, α-lipoic acid 50 μM, ambroxole 10 μM, enalapril 5 μM, captopril 10 μM
Protocol: Peritoneal macrophages were isolated from patients under kidney replacement therapy according to the processes described under example 3 and cultured in the presence of the combinations of α-lipoic acid and effectors of the glutathione metabolism named according to the invention. After incubation for 6 days, the degree of differentiation of the peritoneal macrophages was determined cytofluorometrically by means of the expression of the cell surface antigens CD15 and CD11c, and the degree of cellular activation by means of the coexpression of the activation antigens CD69 on CD15-positive cells and CD71 on CD11c-positive cells.

[5] = system: peritoneal macrophages; experiment: stability of intracellular thiol restitution in peritoneal macrophages in the dialysis model
Protocol: (§1) The peritoneal macrophages described under example 3, which were thiol-restituted by means of the combinations used according to the invention, were removed from this test system after 6 days and cultured in a dialysis model over a period of 14 days. For this, the peritoneal macrophages were adapted to mobile collagen IV-coated matrices and brought into contact with conventional dialysis solution 3 times daily for 60 minutes each. This model served here for the induction of a combined […]/osmotic stress. In FIG. 6, the action of the combination of α-lipoic acid and ambroxole (FIG. 6a), and α-lipoic acid and enalapril (FIG. 6b) on the intracellular thiol expression of the peritoneal macrophages in the time kinetics is presented. The membrane expression of thiols was determined by means of the mean fluorescence intensity (mfi) of the sample (3000 cells/measurement) after coupling to a chloro-methylfluorochrome derivative.

[6] = system: peritoneal macrophages; experiment: stability of membrane-bound thiol restitution in peritoneal macrophages in the dialysis model; conditions: dialysis model over 14 days; FIG. 7
Protocol: as §1

O=C(O)CCCCC1CCSS1 (stereo not drawn) [α-lipoic acid]
Membrane-bound thiol expression ([1]; culture period 0 d): 2.37 ± 0.45 mfiBeads/Ratio
Membrane-bound thiol expression ([1]; culture period 1 d): 2.65 ± 0.39 mfiBeads/Ratio
Membrane-bound thiol expression ([1]; culture period 2 d): 2.43 ± 0.52 mfiBeads/Ratio
Membrane-bound thiol expression ([1]; culture period 3 d): 2.31 ± 0.36 mfiBeads/Ratio
Membrane-bound thiol expression ([1]; culture period 4 d): 2.26 ± 0.20 mfiBeads/Ratio
Membrane-bound thiol expression ([1]; culture period 6 d): 2.19 ± 0.13 mfiBeads/Ratio
Membrane-bound thiol expression ([1]; culture period 8 d): 1.93 ± 0.20 mfiBeads/Ratio
Membrane-bound thiol expression ([1]; culture period 10 d): 1.63 ± 0.16 mfiBeads/Ratio
Membrane-bound thiol expression ([1]; culture period 12 d): 1.32 ± 0.21 mfiBeads/Ratio
Membrane-bound thiol expression ([1]; culture period 14 d): 1.34 ± 0.20 mfiBeads/Ratio
effect on the activation index of T lymphocytes (in words) [2]: slight improvement in the cellular activatability
effect on the membrane-bound thiol expression of peritoneal macrophages (in words) [3]: very marked effect of the sole administration of α-lipoic acid is to be noted here, which, however, is cancelled out again after 4 days of treatment
CD15/69 ([4]; CD69 on CD15-positive cells): 1.09 ± 0.08
CD11c/71 ([4]; CD71 on CD11c-positive cells): 1.08 ± 0.09
CD11c [4]: 1.21 ± 0.11
CD15 [4]: 1.18 ± 0.16
action relative to the action of the combinations ([5]; after about 4 days in the dialysis model): approximately 50%
intracellular thiol status in the dialysis model (in words) ([5]; dialysis model over 14 days, FIG. 6): only short-lasting
membrane-bound thiol expression in the dialysis model (in words) [6]: intermediate
